Source: patent publication US20250304921A1 (University of Pittsburgh-Of The Commonwealth System of …, priority 2022, published 2025)
Entries after “also recorded” stand apart in the source; their conditions may differ. Residues, ends and D or L forms follow the SMILES beside them. *: point of attachment. Decanoyl = CCCCCCCCCC(=O)*; CH2Cl = ClC*

B1: trypsin (protein, UniProt P00760 24-246, looked up)
Serine protease 1: IVGGYTCGANTVPYQVSLNSGYHFCGGSLINSQWVVSAAHCYKSGIQVRLGEDNINVVEGNEQFISASKSIVHPSYNSNTLNNDIMLIKLKSAASLNSRVASISLPTSCASAGTQCLISGWGNTKSSGTSYPDVLKCLKAPILSDSSCKSAYPGQITSNMFCAGYLEGGKDSCQGDSGGPVVCSGKLQGIVSWGSGCAQKNKPGVYTKVCNYVSWIKQTIASN
notes: exogenous protease added to fusion assays or virus titration

Legend:
[1] = tested on: rFeMV^US5Venus (6); assay type: cell-based, Feline morbillivirus (FeMV)
[2] = tested on: rFeMV^US5Venus (6) or rFeMV^US5Venus (3); assay type: cell-based, Feline morbillivirus (FeMV)
[3] = tested on: rFeMV^US5Venus (6); assay type: cell-based, Feline morbillivirus (FeMV); remark: listed apart in the source
[4] = tested on: FeMV^US5F; test: Western blot of AU1-tagged F glycoprotein processing (F0 to F1) in transfected cells; assay type: cell-based, Feline morbillivirus (FeMV); conditions: E64d 20 μM vs DMSO; transfected CRFK cells, lysates at 2 d.p.t.
Method: (§1) CRFK cells were transfected with pCG-FeMV^US5F, pCG-FeMV^US5FAU1, or pCG-FeMV^US5FPB-AU1 in the absence or presence of the pan-cysteine protease inhibitor E64d. At 2 d.p.t. cell lysates were prepared. Medium was removed and the monolayers were rinsed twice with 1 ml cold D-PBS. Cold 1× RIPA buffer (Boston bioproducts; 200 μl) containing 1× HALT protease inhibitors (Thermo Fisher Scientific) was added to the monolayers and incubated on ice for 15 minutes. Monolayers were scraped into the buffer and transferred to cold 1.5 ml tubes. Lysates were incubated on ice for 30 minutes with intermittent vortexing before being centrifuged at 14,000 g for 15 minutes at 4° C. to pellet nuclei. The cleared supernatants were used to prepare samples for polyacrylamide gel electrophoresis (PAGE) by adding appropriate volumes of 4× NUPAGE™ LDS sample loading buffer and ×10 NUPAGE™ reducing agent (both Thermo Fisher Scientific Scientific). PAGE samples were heated to 70° C. for 10 minutes before separation of proteins on a 10% NUPAGE™ bis-TRIS polyacrylamide gel using the Xcell SureLock Mini-Cell system (Thermo Fisher Scientific Scientific) according to manufacturer's instructions. An aliquot of SeeBlue Plus2 Protein Standard was included on each gel to allow estimation of protein sizes. […]

[5] = tested on: FeMV^US5FPB; test: as above; assay type: cell-based, Feline morbillivirus (FeMV); conditions: E64d 20 μM vs DMSO; transfected CRFK cells, lysates at 2 d.p.t.
Method: as §1

[6] = tested on: FeMV^US5FPB protein; assay type: cell-based, Feline morbillivirus (FeMV)
[7] = tested on: FeMV F and H glycoproteins; assay type: cell-based, Feline morbillivirus (FeMV)
[8] = tested on: NiV^MA F and G glycoproteins; assay type: cell-based, Nipah virus (NiV)
[9] = tested on: CDV^RI F and H glycoproteins; assay type: cell-based
[10] = tested on: MV^KS F and H glycoproteins; assay type: cell-based
[11] = tested on: FeMV; conditions: trypsin added during virus titration in CRFK cells; cited from earlier work

Molecule	rFeMV^US5-induced cell-to-cell fusion (luciferase activity) [1]	infectious virus titers [2]	cell-to-cell fusion and spread by rFeMV^US5Venus (6) and rFeMV^US5Venus (3) [3]	spread of rFeMV^US5Venus (6) infection [3]	virus entry and initial replication in cells [3]	FeMV^US5F processing (F0 to F1 subunit) [4]	FeMV^US5FPB (polybasic cleavage signal) F0 processing [5]	fusion activity with FeMV^US5FPB protein [6]	FeMV glycoprotein-induced fusion [7]	NiV^MA glycoprotein-induced fusion [8]	CDV^RI glycoprotein-induced fusion [9]	MV^KS glycoprotein-induced fusion [10]	effect of trypsin on resultant virus titers [11]	effect of exogenous trypsin on FeMV glycoprotein-induced cell-to-cell fusion [7]
CCCNC(=O)[C@H]1O[C@@H]1C(=O)N[C@H](C(=O)N1CCC[C@H]1C(=O)OC)[C@@H](C)CC [CA-074Me]	reduced; also recorded: inhibited	reduced the infectious virus titers by two logs	prevented cell-to-cell fusion and spread	limited to single cells with no spread from the initially infected cell	can enter and initially replicate in cells equivalently to the no inhibitor control									
CCOC(=O)[C@H]1O[C@@H]1C(=O)N[C@@H](CC(C)C)C(=O)NCCC(C)C [E64d]	reduced	reduced the infectious virus titers by two logs	prevented cell-to-cell fusion and spread	limited to single cells with no spread from the initially infected cell	can enter and initially replicate in cells equivalently to the no inhibitor control	prevented FeMV^US5F processing	no longer prevented F0 glycoprotein processing	no longer affected the fusion activity	significantly reduced; also recorded: inhibited	significantly reduced				
CCCCCCCCCC(=O)N[C@@H](CCCN=C(N)N)C(=O)N[C@H](C(=O)N[C@@H](CCCCN)C(=O)N[C@@H](CCCN=C(N)N)C(=O)CCl)C(C)C [furin inhibitor I] (Decanoyl-RVKR-CH2Cl)	no difference in luciferase activity			had spread significantly				significantly reduced fusion	unaffected		reduced	reduced		
B1													did not augment the resultant virus titers	did not enhance fusion
